Source: patent publication US20090018642A1, “Methods to improve the stability of celluar adhesive proteins and peptides” (BOSTON SCIENTIFIC SCIMED, INC., priority 2007, published 2009)
Read-outs that look alike come from different tables or passages of the source. One block for each compound: values may come before it.

Assays:
[1] = Experimental: A blank solution with PBS only was also prepared.
8 mm Liberte WH stents were placed in the wells of a 48-well polystyrene plate and 240 μl of each peptide concentration (including the blank) was then added to each well. The plates were then incubated for at least 1 hr at room temperature (RT) with gentle shaking (100 rpm) to allow for binding to occur. Excess peptide solution was removed and discard using a micropipette.
The stents were then washed 3 times with 1.5 ml PBS-Tween, with approximately 30 sec of shaking at 150 rpm between washes. 1.5 ml of 1% bovine serum albumin (BSA) in PBS (blocking solution) was then added to each stent and incubated for 1 hr at RT with gentle shaking (100 rpm) to allow for blocking to occur. After 1 hr, excess blocking solution was removed and discarded with a micropipette. The stent was then washed 3 times with 1.5 ml PBS-Tween using the wash method described above.
300 μl of Streptavidin-AP (alkaline phosphatase) solution was added to each stent at 1/1000 in TBS+1% BSA and incubated for 30 min at room temperature with gentle shaking (100 rpm). Excess Streptavidin solution was then removed and discarded. The stents were then washed 2 times with 1.5 ml PBS-Tween and then transferred to a set of new wells on the same plate using tweezers. Once the stents were moved, they were then washed once more with 1.5 ml PBS-Tween. 300 μl of the chromogen p-nitrophenyl phosphate (PNPP) was added to each stent in the 48 well plate. The plate was then placed on the shaker platform and incubated for 5 minutes at 100 rpm to allow color development to occur. 10 μl of sodium hydroxide (NaOH) was then added to the wells of a 96 well tissue culture plate. To stop the color development, 100 μl of the solution in each stent containing well was transferred to a well containing NaOH in the 96 well plate.
Optical density (OD) was determined by reading the 96 well plate in a plate reader (Spectramax Plus, Molecular Devices) at 405 nm in endpoint mode. The measured OD for the blank was subtracted from the ODs for all other solutions. The resulting ODs were plotted (y-axis) vs. concentration (μM) (log x-axis).
The OD at 5 min (405 nm) was measured at 1 hr, 4 hr and 24 hrs as described above.
The OD at 5 min (405 nm) was measured and the EC50 was determined as described above.

[2] = Langmuir isotherm, quartz crystal microbalance with dissipation (QCM-D); format: binding
Experimental: Stainless Steel Quartz Crystals (Q-Sense, QSX 304) were cleaned with a UV/Ozone treatment (Bioforce, UV […], Model No. […] The crystals were then immersed in a 2% sodium dodecyl sulfate (SDS) (MPI, Product No. 811036) in dH2O solution for 5 minutes, washed thoroughly with dH2O, N2 dried, and UV/Ozone treated for an additional 10 minutes. Surface Characterization: The QCM-D measurements (Q-Sense E4) were made with a solution flow rate of 100 μL per minute. The experiment was temperature controlled at 25° C. In the experiments, four samples were tested at one time using the QCM-D. Each experiment included running PBS for approximately 10 minutes to establish a stable baseline. The peptide solutions were then added at various concentrations until the change in frequency was 2 Hz per 30 minutes or less. The final step was to wash with PBS for 30 minutes or until the change in frequency was 2 Hz per 30 minutes or less. For analysis purposes (Sauerbrey model, Q-Tools), generally the third overtone was used from each sample.

[3] = on the order of; cited from earlier work
[4] = test system: human coronary artery endothelial cells (HCAEC); experiment: HCAEC migration on coated stainless steel strips; format: cell-based; settings: strips pre-coated with 10 μM peptide; 48 hours; uncoated stainless steel normalized to 1; p<0.01
Text: Migration and proliferation of endothelial cells on biomaterials can impact the rates of reendothelization and angiogenesis, which can be important during the development and success of implantable medical devices. In this experiment, the effect of a surface-binding cell adhesion polypeptide on the motility of human coronary artery endothelial cells (HCAEC) on a stainless steel substrate was examined in vitro. The surface-binding cell adhesion polypeptide used in this example included DOPA as a surface binding moiety, a (ALA-Aib)3 linker, and the recognition sequence for laminin receptors (YIGSR) as the cell adhesion polypeptide [(DOPA)2-(ALA-Aib)3-YIGSR-OH, hereinafter PEPTIDE-1] (synthesized at the MGH Peptide/Protein Core Facility, Harvard Medical School, Boston, Mass.).
Human coronary artery endothelial cells (HCAEC, available from Cell Applications, Inc., San Diego, Calif.) were used in this study. The substrates were sterile stainless steel strips [3.5″×0.308″×0.031″] or sterile stainless steel strips coated with PEPTIDE-1.
Collagen gels were prepared using the following protocol: One 10 mg vial of high concentration (HC) Type I collagen (Rat tail, from BD Biosciences, San Jose, Calif.) was diluted with distilled sterile H2O to a final volume of 38 ml and mixed thoroughly without introducing bubbles (by pipetting up and down). […]

Compound: (DOPA)2-(ALA-Aib)3-RIGSY-(Biotin)-OH [PEPTIDE-2]
EC50 ([1]; incubation time study, 1 hr): 310 nM
EC50 ([1]; incubation time study, 4 hr): 300 nM
EC50 ([1]; incubation time study, 24 hr): 270 nM
EC50 ([1]; read-out: half-maximal concentration (EC50), concentration range study, coating 1 hour at room temperature): ~370 nM
affinity for stainless steel in comparison to BSA ([2]; greater affinity than non-specific protein BSA): approx. 3 orders of magnitude

EC50 ([2]; QCM-D, 25° C.): ≥ 100000 nM
Compound: bovine serum albumin [BSA, reference compound]

Compound: N[C@@H](Cc1ccc(O)c(O)c1)C(=O)O [DOPA, 3,4 dihydroxyphenylalanine]
binding constant [3]: ~10^16

EC50 ([2]; QCM-D, 25° C.): 280 nM
Kd ([2]; QCM-D, 25° C., Langmuir isotherm fit): 260 nM
Compound: (Dopa)2-(Ala-Aib)3-RIGSY-OH [PEPTIDE-3]

Compound: (DOPA)2-(ALA-Aib)3-YIGSR-OH [PEPTIDE-1]
HCAEC migration compared to stainless steel alone [4]: 1.7 fold
